Legend:
Assay in all cases: relative viability (nuclei count vs DMSO), 5 days (fraction); higher = more cells survive
Motesanib + Pemetrexed = compound: CC1(C)CNc2cc(NC(=O)c3cccnc3NCc3ccncc3)ccc21 [Motesanib] + Nc1nc2[nH]cc(CCc3ccc(C(=O)N[C@@H](CCC(=O)O)C(=O)O)cc3)c2c(=O)[nH]1 [Pemetrexed] (partner 0.2 µM)
Procedure, shortened: (§1)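 Relative viability equals treated-well nuclei counts divided by vehicle-well nuclei counts. Counts came from 4× images of lung cancer cell lines grown in 1536-well plates for 5 days after pin-tool dosing on the day after seeding. Dosing used one drug alone or a fixed anchor-drug dose plus five library-drug doses (not always all listed) in √10 steps, and values are medians of duplicate plates.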

[1] = compound: C[C@@]1(C(=O)Nc2ccc(F)nc2)CCCN1c1nc(Nc2cc(C3CC3)n[nH]2)c2cccn2n1 + Nc1ncn([C@H]2C[C@H](O)[C@@H](CO)O2)c(=O)n1 [Decitabine] (partner 2 µM)
Procedure, shortened: as §1

[2] = compound: C[C@@]1(C(=O)Nc2ccc(F)nc2)CCCN1c1nc(Nc2cc(C3CC3)n[nH]2)c2cccn2n1 + O=C(c1cc(Cc2n[nH]c(=O)c3ccccc23)ccc1F)N1CCN(C(=O)C2CC2)CC1 [Olaparib] (partner 8 µM)
Procedure, shortened: as §1

[3] = compound: C[C@@]1(C(=O)Nc2ccc(F)nc2)CCCN1c1nc(Nc2cc(C3CC3)n[nH]2)c2cccn2n1 + COc1cccc2cc(-c3nc([C@H]4CC[C@H](C(=O)O)CC4)n4ncnc(N)c34)[nH]c12 [OSI-027] (partner 0.5 µM)
Procedure, shortened: as §1

Cell Line	relative viability (Motesanib + Pemetrexed; first compound 0.01 µM)	relative viability (Motesanib + Pemetrexed; first compound 0.03162 µM)	relative viability (Motesanib + Pemetrexed; first compound 0.1 µM)	relative viability (Motesanib + Pemetrexed; first compound 0.3162 µM)	relative viability (Motesanib + Pemetrexed; first compound 1 µM)	relative viability ([1]; first compound 0.04 µM)	relative viability ([1]; first compound 0.1265 µM)	relative viability ([1]; first compound 0.4 µM)	relative viability ([1]; first compound 1.265 µM)	relative viability ([2]; first compound 0.04 µM)	relative viability ([2]; first compound 0.1265 µM)	relative viability ([2]; first compound 0.4 µM)	relative viability ([2]; first compound 1.265 µM)	relative viability ([3]; first compound 0.04 µM)	relative viability ([3]; first compound 0.1265 µM)	relative viability ([3]; first compound 0.4 µM)	relative viability ([3]; first compound 1.265 µM)
NCI-H522	1.01	1.05	0.955	0.844	1.03	0.616	0.607	0.591	0.639	0.66	0.588	0.615	0.596	0.589	0.36	0.735	0.704
NCI-H838	0.23	0.248	0.26	0.231	0.239	0.461	0.467	0.395	0.335	0.726	0.636	0.555	0.388	0.362	0.192	0.182	0.28
SW 900	0.459	0.416	0.356	0.301	0.303	0.403	0.437	0.351	0.349	1.02	0.895	0.721	0.717	0.549	0.518	0.464	0.551
A549	–	–	–	–	–	0.284	0.248	0.326	0.199	0.293	0.17	0.148	0.244	–	–	–	–
A-427	0.963	0.912	0.963	0.992	0.972	0.514	0.413	0.489	0.501	0.666	0.663	0.603	0.529	0.442	0.275	0.366	0.261
NCI-H1792	0.778	0.859	0.791	0.785	0.711	0.401	0.235	0.249	0.304	0.194	0.175	0.0767	0.161	0.303	0.828	0.199	0.212
LCLC-97TM1	0.175	0.153	0.151	0.16	0.173	0.228	0.131	0.111	0.271	0.142	0.133	0.1	0.229	0.284	0.111	0.122	0.112
NCI-H1703	–	–	–	–	–	–	–	–	–	0.402	0.428	0.421	0.357	–	–	–	–
LCLC-103H	0.458	0.435	0.429	0.505	0.458	0.745	0.661	0.71	0.712	0.716	0.655	0.518	0.762	0.434	0.295	0.268	0.274
PC-3 [JPC-3]	1.02	1.04	1.04	1.03	0.974	0.786	0.608	0.804	0.766	1.23	0.798	1.04	1.1	0.688	0.59	0.485	0.621
BEN	0.539	0.774	0.73	0.582	0.749	0.702	0.583	0.737	0.562	1.09	1.14	0.97	0.988	0.263	0.18	0.236	0.271
